System: adjuvant induced arthritis
Assay: Adjuvant arthritis model in Lewis rats
Format: in vivo, rat

## CNC(=O)[C@H]1O[C@@H](n2cnc3c(NCc4cccc(I)c4)nc(Cl)nc32)[C@H](O)[C@@H]1O [Cl-IB-MECA, 2-chloro-N^6-(3-iodobenzyl)-adenosine-5′-N-methyl-uronamide]
10 μg/kg a day PO, untreated rat paws extremely swollen and red
  appearance of paws: normal appearing paws
PO, from day 7 after disease induction, FIG. 4
  improvement of arthritis score, 10 μg a day compared with 100 μg/kg a day: significantly more effective

Reference: patent US7141553B2, “A3AR agonists for the treatment of inflammatory arthritis” (Can-Fite Biopharma Ltd. Israel, priority 2002, dated 2006)
